Laboratory results as given in patent publication US20220125930A1, “SYSTEM AND METHOD FOR FABRICATION OF LARGE, POROUS DRUG-SILK MATERIALS USING CRYOGRANULATION” (Trustees of Tufts College, priority 2019, published 2022).

System: bioluminescent S. aureus Xen29
Experiment: Kirby-Bauer disc diffusion test of antibiotic-loaded RSFPs
Type: cell-based
Settings: zones of inhibition on XEN29 cultures after 12 hours, vs blank RSFPs
Method: Antimicrobial activity of tobramycin sulfate (TS), gentamicin sulfate (GS) and kanamycin sulfate (KS) encapsulated in RSFPs sized 100-500 mcm was assessed by Kirby-Bauer disc diffusion tests, performed according to methods outlined in the NCCLS Approved Standard M2-A7. A stock suspension of bioluminescent S. aureus Xen29 was prepared in sterile physiological solution and turbidity (expressed as optical density; OD) was adjusted against the McFahrland standard to match the 0.5 level. A sterilized cotton swab was immersed in the bacterial suspension, and a lawn of bacteria was applied on the Luria Bertani (LB) plates. A 10-mm biopsy punch was used to cut two circular fragments from each of the freshly infected plates, and both fragments were coated with antibiotic-loaded RSFPs by quick blotting against the pool of particles. The freshly mounted samples were inserted […] II system (Caliper life Science, America). The exposure time (1 s), excitation filter (430 nm), and emission filter with emission wavelength from 575 to 650 nm (DsRed) were set prior to detection.

Substance	post-processing antimicrobial activity (antibiotic function) of cryoencapsulated antibiotics
tobramycin sulfate [TS]	preserved
gentamicin sulfate [GS]	preserved
